Measurements: patent publication US7973062B2, “Androgen receptor-ablative agents” (The Ohio State University Research Foundation, priority 2008, dated 2011)

Tests used:
Type in all cases: cell-based
PPARγ = molecular target: T1, PPARγ (Homo sapiens, UniProt P37231); assay: PPRE-luciferase reporter assay (PPRE-x3-TK-Luc) in PC-3 cells; settings: PC-3 cells transfected with PPRE-x3-TK-Luc
T1 construct: In PC-3 cells transfected with a reporter construct (PPRE-x3-TK-Luc); endogenous in cells; host or cells: PC-3
T1 sequence (P37231 1-505): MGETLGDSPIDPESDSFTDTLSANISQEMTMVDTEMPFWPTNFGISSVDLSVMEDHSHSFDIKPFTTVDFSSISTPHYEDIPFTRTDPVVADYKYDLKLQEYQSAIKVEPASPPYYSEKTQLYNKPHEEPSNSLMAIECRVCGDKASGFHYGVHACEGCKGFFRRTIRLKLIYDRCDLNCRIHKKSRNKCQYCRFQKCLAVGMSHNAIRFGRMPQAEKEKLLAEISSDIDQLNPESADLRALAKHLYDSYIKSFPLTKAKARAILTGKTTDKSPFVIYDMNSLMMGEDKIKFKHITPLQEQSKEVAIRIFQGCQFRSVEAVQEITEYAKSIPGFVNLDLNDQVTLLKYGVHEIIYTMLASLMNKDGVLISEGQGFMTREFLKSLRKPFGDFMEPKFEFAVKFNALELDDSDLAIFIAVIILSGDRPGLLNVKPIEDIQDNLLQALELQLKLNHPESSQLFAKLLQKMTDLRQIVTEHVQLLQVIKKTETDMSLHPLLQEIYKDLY
Description: Transfection and Luciferase assay. The 3.6-kilobase AR promoter-linked reporter plasmid p-3600ARCAT was kindly provided by Dr. Chawnshang Chang (University of Rochester Medical Center, Rochester, N.Y.). The AR promoter gene (−3600 to +550) encompassing the transcription start site was isolated by using PCR to generate hAR-luc with suitable primers. The fragment was subcloned into the pGL3 luciferase reporter vector (Promega, Madison, Wis.) at KpnI and BglII in the multiple cloning site. The PPRE-x3-TK-Luc reporter vector contains three copies of the PPAR-response element (PPRE) upstream of the thymidine kinase promoter-luciferase fusion gene and was kindly provided by Dr. Bruce Spiegelman (Harvard University, Cambridge, Mass.). The pCMVSp1 plasmid was purchased from Origene Technologies, Inc. (Rockville, Md.). LNCaP or PC3 cells were transfected with 5 μg of individual plasmids in an Amaxa Nucleofector using a cell line-specific nucleofector kit according to the manufacturer's protocol (Amaxa Biosystems, Cologne, Germany), and then seeded in 6-well plates at 5×10^5 cells per well for 48 h. […] For each transfection, herpes simplex virus thymidine kinase promoter-driven Renilla reniformis luciferase was used as an internal control for normalization.
(§1) Fifty-μl aliquots of the lysates were added to 96-well plates, and luciferase activity was monitored after adding 100 μl of luciferase substrate (Promega) each well by using a MicroLumatPlus LB96V luminometer (Berthold Technologies, Oak Ridge, Tenn.) with the WinGlow software package. All transfection experiments were carried out in six replicate.

[1] = system: androgen receptor (AR) expression; assay: Western blot analysis of AR protein expression in LNCaP cells; settings: for suppression of AR protein expression (in words): 72 h, Western blot
Protocol: RT-PCR and Immunoblotting. LNCaP cells were cultured in T25 flasks at an initial density of 1×10^6 cells/flask. After exposure to various compounds at the indicated conditions, cells were subject to total RNA isolation by using an RNeasy mini-kit (QIAGEN, Valencia, Calif.). RNA concentrations were determined by measuring absorption at 260 nm in a spectrophotometer. Aliquots of 6 μg of total RNA from each sample were reverse-transcribed to cDNA using an Omniscript RT Kit (QIAGEN) according to the manufacturer's instructions, using suitable primers.
For immunoblotting, protein extracts were prepared by M-PER Mammalian Protein Extraction Reagent (Pierce, Rockford, Ill.) with freshly added 1% phosphatase and protease inhibitor cocktails (Calbiochem) followed by centrifugation at 13,000×g for 10 min. Supernatant was collected and protein concentration was determined by protein assay reagent (Bio-Rad, CA). Protein extracts were then suspended in 2×SDS sample buffer, and subject to 10% SDS-polyacrylamide gels. After electrophoresis, proteins were transferred to nitrocellulose membranes using a semidry transfer cell. The transblotted membrane was washed twice with Tris-buffered saline containing 0.1% Tween 20 (TBST). After blocking with TBST containing 5% nonfat milk for 1 h, the membrane was incubated with mouse monoclonal anti-AR (Santa Cruz) or anti-β-actin (MP Biomedicals) antibodies (diluted 1:1000) in 1% TBST nonfat milk at 4° C. overnight. After incubation with the primary antibody, the membrane was washed three times with TBST for a total of 30 min, followed by incubation with horseradish peroxidase conjugated goat anti-mouse IgG (diluted 1:2500) for 1 h at room temperature. After three thorough washes with TBST for a total of 30 min, the immunoblots were visualized by enhanced chemiluminescence.

AR promoter = assay: AR promoter-luciferase reporter assay in transiently transfected LNCaP cells; settings: compounds at 10 μM, 48 h, ciglitazone and Δ2CG at 20 μM
Description: Transfection and Luciferase assay. The 3.6-kilobase AR promoter-linked reporter plasmid p-3600ARCAT was kindly provided by Dr. Chawnshang Chang (University of Rochester Medical Center, Rochester, N.Y.). The AR promoter gene (−3600 to +550) encompassing the transcription start site was isolated by using PCR to generate hAR-luc with suitable primers. The fragment was subcloned into the pGL3 luciferase reporter vector (Promega, Madison, Wis.) at KpnI and BglII in the multiple cloning site. The PPRE-x3-TK-Luc reporter vector contains three copies of the PPAR-response element (PPRE) upstream of the thymidine kinase promoter-luciferase fusion gene and was kindly provided by Dr. Bruce Spiegelman (Harvard University, Cambridge, Mass.). The pCMVSp1 plasmid was purchased from Origene Technologies, Inc. (Rockville, Md.). LNCaP or PC3 cells were transfected with 5 μg of individual plasmids in an Amaxa Nucleofector using a cell line-specific nucleofector kit according to the manufacturer's protocol (Amaxa Biosystems, Cologne, Germany), and then seeded in 6-well plates at 5×10^5 cells per well for 48 h. The transfection efficiency was determined to be 70-80% by transfecting cells with 2 μg of pmaxGFP plasmid, followed by fluorescence microscopy to measure GFP expression. For each transfection, herpes simplex virus thymidine kinase promoter-driven Renilla reniformis luciferase was used as an internal control for normalization.
as §1, with “For the reporter gene assay, after transfection, cells were cultured in 24-well plates in 10% FBS-supplemented RPMI 1640 medium for 48 h, subject to different treatments for the indicated times, collected, and lysed with passive lysis buffer (Promega). Fifty-μl” for “Fifty-μl”

[2] = system: LNCaP androgen-responsive prostate cancer cells; assay: MTT cell viability assay, LNCaP cells; settings: 48 h
Protocol: Cell Counting and Cell Viability Assay. LNCaP or PC-3 cells were placed in six-well plates (2.5×10^5 cells/well) in 10% FBS-supplemented RPMI 1640 for 24 h, and treated with various concentrations of compound 12 for additional 24, 48 and 72 h. Cells were then trypsinized and counted by using a Coulter counter (Model Z1 D/T, Beckman Coulter, Fullerton, Calif.). Cell viability was assessed by using the 3-(4,5-dimethylthiazol-2-yl)-2,5-diphenyl-2H-tetrazolium bromide (MTT) assay in six replicates in 96-well plates. LNCaP or PC-3 cells were seeded at 6000 cells per well in 10% FBS-supplemented RPMI 1640 for 24 h, followed by treatments with various compounds in 5% FBS-supplemented RPMI 1640 at the indicated concentrations. Controls received DMSO at a concentration equal to that in drug-treated cells. After the end of incubation, MTT (0.5 mg/ml) in 10% FBS-supplemented RPMI 1640 was added to each well, and cells were incubated at 37° C. for 2 hours. Medium was removed and the reduced MTT dye was solubilized in DMSO (200 μl/well). Absorbance was determined at 570 nm by a 96-well plate reader.

[3] = system: PARP cleavage, caspase 3 and caspase 7 activation; assay: Western blot of apoptosis-related biomarkers in LNCaP cells; settings: 72 h

| SMILES | suppression of AR protein expression (in words) ([1]; 10% FBS) | suppression of AR promoter-luciferase activity / AR transcription (in words) (AR promoter) | inhibition of LNCaP cell viability (in words) [2] | further results |
| --- | --- | --- | --- | --- |
| CC1(COc2ccc(C=C3SC(=O)NC3=O)cc2)CCCCC1 [Δ2CG, reference compound] | modestly higher potency than ciglitazone |  |  | PPARγ activation (in words) (PPARγ): lacked appreciable activity; concentration required for complete suppression of AR protein expression ([1]; 10% FBS, Western blot (FIG. 2A)): approximately 30 μM |
| CC1(COc2cccc(/C=C3\SC(=O)NC3=O)c2)CCCCC1 [Compound 1, 5-[3-(1-Methyl-cyclohexylmethoxy)-benzylidene]-thiazolidine-2,4-dione] | dose-dependent effect on suppressing AR protein expression | enhanced AR-ablating activity |  |  |
| CC1(CN2C(=O)S/C(=C\c3ccccc3O)C2=O)CCCCC1 [Compound 10, 5-(2-Hydroxy-benzylidene)-3-(1-methyl-cyclohexylmethyl)-thiazolidine-2,4-dione] |  | abolished the ability to suppress | abolished the ability to suppress |  |
| CC1(CN2C(=O)S/C(=C\c3cccc(O)c3)C2=O)CCCCC1 [Compound 11, 5-(3-Hydroxy-benzylidene)-3-(1-methyl-cyclohexylmethyl)-thiazolidine-2,4-dione] |  | abolished the ability to suppress | abolished the ability to suppress |  |
| CC1(CN2C(=O)S/C(=C\c3cc(Br)c(O)c(Br)c3)C2=O)CCCCC1 [Compound 16, 5-(3,5-Dibromo-4-hydroxy-benzylidene)-3-(1-methyl-cyclohexylmethyl)-thiazolidine-2,4-dione] |  | optimal agents | optimal agents | apoptosis-related biomarkers: PARP cleavage, proteolytic activation of caspase 3 and caspase 7 [3]: dose-dependent effects; PPARγ activation (in words) (PPARγ): lacked appreciable activity; IC50 ([1]; 72-h exposure, Western blot (FIG. 4C), read-out: IC50 for suppressing AR expression): ~4 µM |
| CC1(CN2C(=O)SC(Cc3ccc(O)c(C(F)(F)F)c3)C2=O)CCCCC1 (stereo not shown) [Compound 20, 5-(4-Hydroxy-3-trifluoromethyl-benzyl)-3-(1-methyl-cyclohexylmethyl)-thiazolidine-2,4-dione] | retained the ability to suppress AR expression and cell viability, though with slightly lower potency |  | retained the ability to suppress AR expression and cell viability, though with slightly lower potency |  |
| CCOc1cc(/C=C2\SC(=O)NC2=O)ccc1OCC1(C)CCCCC1 [Compound 6, 5-[3-Ethoxy-4-(1-methyl-cyclohexylmethoxy)-benzylidene]-thiazolidine-2,4-dione] | dose-dependent effect on suppressing AR protein expression |  |  |  |
| CC1(CN2C(=O)S/C(=C\c3ccc(O)cc3)C2=O)CCCCC1 [Compound 9, 5-(4-Hydroxy-benzylidene)-3-(1-methyl-cyclohexylmethyl)-thiazolidine-2,4-dione] | dose-dependent effect on suppressing AR protein expression | enhanced AR-ablating activity |  |  |
